This passage reports IC50 results from BindingDB's records for doi:10.7270/Q23F4N3R (Burnham Center For Chemical Genomics, 2011).

Where a name gives a salt, the structure may show the parent alone. Where a SMILES comes first, the peptide text is derived from it. Bridges are numbered along the chain shown (N, C = ends). [ ]: non-standard residue; d: D form. The star is where a group is joined. X1 = CCC(C)C(N)C1=NC(C(=O)*)CS1; dOrn = NCCC[C@@H](N)C(=O)O

One experiment in a line: hexokinase 1 inhibition, dose response, selectivity assay for HKDC1 inhibitor project, biochemical (AID 504763).
Conditions: not given
Take `CCOc1ccc2c(c1)C(NC(C)=O)C(=O)N2CCN1CCOCC1` (stereo unspecified) [N-[5-ethoxy-1-(2-morpholin-4-ylethyl)-2-oxo-3H-indol-3-yl]acetamide;hydrochloride]: the IC50 is above 80 µM.
Same read-out and setting: the same measure for `Cc1ccccc1NC1=CC(=NS(=O)(=O)c2ccc(C(=O)O)cc2)c2ccccc2C1=O` [4-[(E)-[3-(2-methylanilino)-4-oxonaphthalen-1-ylidene]amino]sulfonylbenzoic acid]: 2.84 µM; for `O=C1C=C(Nc2ccccc2C(=O)O)c2ccccc2C1=O` [SMR000123743]: 16.9 µM; for `O=C(CSc1n[nH]c(-c2cccnc2)n1)Nc1ccc([N+](=O)[O-])cc1Br` [N-(2-bromo-4-nitrophenyl)-2-[(5-pyridin-3-yl-1H-1,2,4-triazol-3-yl)sulfanyl]acetamide]: 5.71 µM.
Molecule `COC(=O)C[C@]1(C(=O)OC)CN(C#N)N(c2ccc(Cl)cc2)C12c1ccccc1-c1ccccc12` [methyl 1-(4-chlorophenyl)-2-cyano-4-(2-methoxy-2-oxoethyl)spiro[pyrazolidine-5,9'-(9'H)-fluorene]-4-carboxylate] displayed an IC50 above 80 µM.
With `O=c1c2ccccc2nc(/C=C/c2cccnc2)n1CCc1ccccc1`, the IC50 is above 80 µM.
For `CCCc1nc2oc3c(NCCOCCO)ncnc3c2c2c1COC(C)(C)C2` [SMR000048002], the IC50 amounted to 11.1 µM.
The same measure, in the same setting: under `O=C1C=CC(CN=Nc2ccc([N+](=O)[O-])cn2)C(O)=C1` (stereo unspecified) [SMR001527138] stands above 80 µM; under `Cc1cccc2c1=NC(=O)C=2NNC(=O)c1ccc(NS(=O)(=O)c2cccs2)cc1` [SMR001246714], 52.6 µM; under `CCC1=NN2C(=N)/C(=C\c3ccc(OCc4cc(=O)n5nc(CC)sc5n4)c(OC)c3)C(=O)N=C2S1` [2-ethyl-7-({4-[(E)-(2-ethyl-5-imino-7-oxo-5H-[1,3,4]thiadiazolo[3,2-a]pyrimidin-6(7H)-ylidene)methyl]-2-methoxyphenoxy}methyl)-5H-[1,3,4]thiadiazolo[3,2-a]pyrimidin-5-one], above 80 µM.
Consider `CCOC(=O)c1ccc(NC2=CC(=O)C(=O)c3ccccc32)cc1`, for which the IC50 is above 80 µM.
Molecule `COc1ccc(NC(=O)Cc2c[nH]c3ccccc23)cc1S(=O)(=O)N1CCCCC1` [2-(1H-indol-3-yl)-N-(4-methoxy-3-piperidin-1-ylsulfonylphenyl)acetamide] displayed an IC50 above 80 µM.
Still for that read-out and setting: the same measure for `CCN(CC)C(=O)c1ccc(C(=O)c2c(C)cc(C)cc2C)cc1` [N,N-diethyl-4-[oxo-(2,4,6-trimethylphenyl)methyl]benzamide]: above 80 µM; for `O=C1C(Nc2ccccc2)=CC(=NS(=O)(=O)c2cccs2)c2ccccc21` [MLS000374486]: 6.56 µM.
Turning to `N#Cc1ccc(CSc2nnc(NC(=O)c3ccc4ncsc4c3)s2)cc1` [MLS000334839], the IC50 is above 80 µM.
`Cc1cc(C(F)F)n2ncc(C(=O)NCCc3ccc(Cl)cc3)c2n1` [N-[2-(4-chlorophenyl)ethyl]-7-(difluoromethyl)-5-methylpyrazolo[1,5-a]pyrimidine-3-carboxamide] had an IC50 of 9.04 µM.
Same read-out and setting: the same measure for `COc1ccc(-n2c(C)cc(C(=O)CCl)c2C)cc1` [2-chloranyl-1-[1-(4-methoxyphenyl)-2,5-dimethyl-pyrrol-3-yl]ethanone]: above 80 µM; for `COc1cc(C2c3c([nH]c(=O)[nH]c3=O)Nc3ccc4ccccc4c32)cc(OC)c1OC` (stereo unspecified) [MLS000663320]: above 80 µM; for `O=C1C(=O)c2c(C(=O)c3ccccc3)coc2-c2ccccc21` [3-(phenylcarbonyl)benzo[g][1]benzofuran-4,5-dione]: above 80 µM.
On to `CC(=O)N(C1=C(Cl)C(=O)c2ccccc2C1=O)c1ccc(C(=O)O)cc1` [MLS001196720], for which 8.68 µM corresponded to half-maximal inhibition (IC50).
The same measure, in the same setting: under `Cc1ccc(Nc2c3[nH]cccc-3c(=O)n2-c2ccccc2C)cc1C` [SMR000028201] stands above 80 µM; under `CCCCC(CC)CNC(=N)NC(=N)NCCCCCCNC(=N)NC(=N)NCC(CC)CCCC` (stereo unspecified) [MLS002153995], 38.7 µM.
The same measure, in the same setting: the same measure for `O=c1c2ccccc2nc2n1CCC2` [2,3-dihydropyrrolo[2,1-b]quinazolin-9(1H)-one]: above 80 µM; for `Oc1ccc(O)c(Cc2nc3ccccc3[nH]2)c1` [SMR000298430]: 7.03 µM.
Consider `COC(=O)c1ccccc1NC1=CC(=NS(=O)(=O)c2ccc(C(=O)O)cc2)c2ccccc2C1=O`, for which the IC50 is 5.77 µM.
On the same count and under the same terms, the same measure for `O=S(=O)(O)c1ccc(O)c2cc(Nc3ccccc3)ccc12`: above 80 µM; for `COc1ccc(S(=O)(=O)Nc2ccc(O)c3ccccc23)cc1` [4-methoxy-N-(4-oxidanylnaphthalen-1-yl)benzenesulfonamide]: above 80 µM.
Same read-out and setting: the same measure for `Cc1nc2c(c(=O)c3ccccc3n2C)c(=O)n1-c1ccccc1`: 15.3 µM; for `O=C1C(Cl)=C(N2CCC(C(=O)O)CC2)C(=O)c2ccccc21` [1-(3-chloro-1,4-dioxo-2-naphthalenyl)-4-piperidinecarboxylic acid]: 13.5 µM.
The same measure, in the same setting: under `COc1cc2c(cc1OC)-c1c(OC)c(OC)c(OC)c3ccnc(c13)C2=O` [MLS000574936] stands 10.1 µM; under `CCC(C)C(N)C1=NC(C(=O)N[C@@H](CC(C)C)C(=O)N[C@H](CCC(=O)O)C(=O)N[C@H](C(=O)N[C@H]2CCCCNC(=O)[C@H](CC(N)=O)NC(=O)[C@@H](CC(=O)O)NC(=O)[C@H](Cc3c[nH]cn3)NC(=O)[C@@H](Cc3ccccc3)NC(=O)[C@H]([C@@H](C)CC)NC(=O)[C@@H](CCCN)NC2=O)[C@@H](C)CC)CS1` (stereo partly specified) [MLS002207255] (X1-L[dE]IK[dOrn]I[dF]H[dD]N; lactam 4-C), above 80 µM.
The molecule `CCc1nc2c(c(=O)c3ccccc3n2C)c(=O)n1-c1ccc(F)cc1` [SMR000221205] displayed an IC50 of 8.41 µM.
As for `Cc1cc2cc(CCNC(=O)c3ccc(S(=O)(=O)N4CCCC4)cc3)c(O)nc2cc1C` [N-[2-(6,7-dimethyl-2-oxo-1H-quinolin-3-yl)ethyl]-4-pyrrolidin-1-ylsulfonylbenzamide], the midpoint of inhibition, the IC50, lay at 15 µM.
The same measure, in the same setting: under `COc1ncnc2c1oc1nc(C(C)C)c3c(c12)CC(C)(C)OC3` [MLS000084533] stands 12.5 µM; under `CCCCNC(=O)c1sc(=S)n2c1[nH]c(=O)c1ccccc12` [N-butyl-5-oxo-1-thioxo-4,5-dihydro[1,3]thiazolo[3,4-a]quinazoline-3-carboxamide], 16.1 µM; under `COc1ccc(Cn2c(O)c3[nH]cccc-3c2=O)cc1`, above 80 µM.
Consider `CCOC(=O)C1=C(Cc2ccc(OC)cc2)C(=O)c2ccccc2C1=O` [SMR000136995], for which the IC50 came out at 12.8 µM.
Still for that read-out and setting: the same measure for `CCOC(=O)c1ccc(NC(=O)CSc2n[nH]c(-c3ccncc3)n2)cc1`: 10.5 µM; for `O=C1C(Cl)=C(Oc2ccccc2)C(=O)c2ccccc21` [2-chloro-3-phenoxynaphthalene-1,4-dione]: 10 µM.
With `N#CC(C(=O)CCl)c1nc2c(s1)CCc1ccccc1-2` (stereo unspecified) [MLS001171530], it took 38.3 µM to reach half-maximal inhibition (IC50).
Still for that read-out and setting: under `O=C1C=CC(=O)C(C2=C3C(=O)N(CCc4ccccc4)CC(=O)N3CCC2)=C1` [SMR000226463] stands 6.85 µM.
Regarding `Oc1ccc(CN=Nc2ncc(Br)cn2)c(O)c1`, the IC50 is above 80 µM.
`CC(C)c1nc2oc3c(NCC4CCCO4)ncnc3c2c2c1COC(C)(C)C2` (stereo unspecified) [MLS000084034] returned an IC50 of 2.36 µM.
Still for that read-out and setting: the same measure for `CC(=O)NC1C(=O)N(CCN2CCOCC2)c2ccc(F)cc21` (stereo unspecified) [MLS001215963]: above 80 µM; for `O=C1NC(=S)N(c2ccc(F)cc2)C(=O)C1=Cc1ccoc1` [SMR000270574]: above 80 µM; for `O=C(O)c1ccc(S(=O)(=O)N=C2C=C(Nc3ccccc3F)C(=O)c3ccccc32)cc1`: 6.02 µM.
Same read-out and setting: under `COC1=CC(=O)C(OC)=C(OC)C1=O` [SMR001527280] stands 6.46 µM; under `O=C(C=Cc1ccc(Br)cc1)NC(=S)Nc1ccc(S(=O)(=O)Nc2nccs2)cc1` [(E)-3-(4-bromophenyl)-N-[[4-(1,3-thiazol-2-ylsulfamoyl)phenyl]carbamothioyl]prop-2-enamide], above 80 µM.

Staying with this experiment, now noted: inactive by the depositor's call.
Turning to `NC1=CC(=O)C(=O)c2ccccc21`, the IC50 was 57.8 µM.
On the same count and under the same terms, under `N#Cc1c(SCC(=O)Nc2nc3ccc(Br)cc3s2)sc2c(O)cc(=O)[nH]c12` [N-(6-bromo-1,3-benzothiazol-2-yl)-2-[(3-cyano-5-hydroxy-7-oxo-4H-thieno[3,2-b]pyridin-2-yl)thio]acetamide] stands 25.9 µM; under `COC(=O)c1ccc(NCc2cc(O)ccc2O)cc1` [4-[(2,5-dihydroxyphenyl)methylamino]benzoic acid methyl ester], 21.3 µM.
The molecule `CCOC(=O)C1=C(Cc2ccc(F)cc2)C(=O)c2ccccc2C1=O` [ethyl 3-(4-fluorobenzyl)-1,4-dioxo-1,4-dihydro-2-naphthalenecarboxylate] showed an IC50 of 25.4 µM.
On the same count and under the same terms, under `CCN(CC)Cc1cc(O)c(CN(CC)CC)cc1O` [2,5-bis(diethylaminomethyl)benzene-1,4-diol] stands 55.3 µM; under `COC(=O)c1ccccc1NC1=CC(=NS(=O)(=O)c2cccs2)c2ccccc2C1=O` [methyl 2-[[(4E)-1-oxidanylidene-4-thiophen-2-ylsulfonylimino-naphthalen-2-yl]amino]benzoate], 57 µM.
`COC(=O)c1ccc(CCc2cc(O)c(Br)cc2O)cc1` [SMR001565911] yielded a half-maximal inhibitory concentration (IC50) of 23.2 µM.
`COc1cc2c(cc1OC)-c1cc(NCc3ccccn3)nc(=O)n1CC2` [9,10-dimethoxy-2-(2-pyridinylmethylamino)-6,7-dihydropyrimido[6,1-a]isoquinolin-4-one] yielded an IC50 of 67.4 µM.
Turning to `O=C1C(Cl)=C(N2CCCCC2)C(=O)C(Cl)=C1c1cnc(N2CCCCC2)s1` [MLS000550549], 71.6 µM corresponded to half-maximal inhibition (IC50).
Still for that read-out and setting: under `O=S(=O)(Nc1ccc(O)c2ccccc12)c1cccs1` [N-(4-oxidanylnaphthalen-1-yl)thiophene-2-sulfonamide] stands 55.3 µM.
Regarding `COc1ccc(NC(=O)CSc2ccc(-c3cccnc3)nn2)c(OC)c1` [N-(2,4-dimethoxyphenyl)-2-[[6-(3-pyridinyl)-3-pyridazinyl]thio]acetamide], the IC50 worked out at 21.5 µM.
Same read-out and setting: under `Cc1oc2c(c1C(=O)c1ccc(Cl)cc1)C(=O)C(=O)c1ccccc1-2` [3-(4-Chloro-benzoyl)-2-methyl-naphtho[1,2-b]furan-4,5-dione] stands 40 µM; under `CCCc1nc2oc3c(NCC4CCCO4)ncnc3c2c2c1COC(C)(C)C2` (stereo unspecified) [MLS000042555], 31.6 µM.

In general, IC50 refers to the concentration that inhibits the measured activity by half. A low value points to higher potency.
